Reference: patent publication US10473645B2, “Methods for identifying a receptor for a ligand and uses thereof” (UNIVERSITE DE GENEVE, priority 2014, dated 2019)

How the values were obtained:
Olfr983 = experiment: OR transcript level by RT-qPCR after in vivo odorant exposure; set-up: species or system mouse; key to olfr983 candidate OR (RNAseq) confirmed by qPCR: The transcript downregulation of 21 out of the 26 olfactory receptor candidates obtained by RNAseq was confirmed by qPCR; false RNAseq positive candidates, namely OR candidates for which in fact mRNA was not downregulated following acetophenone exposure; conditions: for Olfr983 mRNA level relative to unexposed controls: 5% odorant, 5 hours, in vivo, RT-qPCR
Description: (§1) In vivo exposure to odorant: Starting 48 h before experiments, mice were habituated to pure DMSO on a cotton ball. 200 μl were pipetted directly onto the cotton and placed in the cage, replacing any cotton that was already in the cage for nest-making purposes.
(§2) On the day of the experiment, mice receiving odorants were transferred to a different room, where they were exposed to a cotton ball on which 200 μl of odorant diluted in pure DMSO were deposited. Exposures started in the morning between 8 and 10 am (that is two hours after lights were on) and mice were killed and dissected between 1 and 3 pm. […] If a number of different odorants were tested in the same experiment, a different overpressurized room would always be used for each odorant to avoid odor cross-contamination.
(§3) After odorant exposure, mice were killed by cervical dislocation and immediately decapitated. The main olfactory epithelia (MOE), were harvested in their entirety and transferred to a tube containing 600 μl of lysis buffer and β-mercaptoethanol (RNAeasy kit, Qiagen, following the manufacturer protocol) and a 0.5 cm diameter steel ball, and then put on ice. Samples were then homogenized using a FastPrep®-24 instrument (MP Biomedicals) at 6 m/s for 30 s and left on ice. RNA extraction was performed on all samples in parallel using the Qiagen RNeasy Mini® kit following the manufacturer's instructions. Two DNase treatments were performed on all samples: first using the Qiagen RNase-Free DNase Set® and then using the Life Technologies Ambion DNase I® kit. RNA samples were then aliquoted and stored at −80° C.
(§4) RNA concentrations were determined using an Amersham Ultrospec® 3100 Pro spectrophotometer, and RNA quality was evaluated with an Agilent Technologies 2100 Bioanalyzer®. […]
(§5) qPCR Ct values were analyzed using an in-house developed Microsoft Excel® macro file. […] Ct values were converted to quantities relative to the maximum for each given gene. Selected reference genes were then analyzed for variance using the geNorm algorithm. […]

Olfr1377 = experiment: as above; set-up: species or system mouse; key to olfr1377 candidate OR (RNAseq) confirmed by qPCR: The transcript downregulation of 21 out of the 26 olfactory receptor candidates obtained by RNAseq was confirmed by qPCR; false RNAseq positive candidates, namely OR candidates for which in fact mRNA was not downregulated following acetophenone exposure; conditions: for Olfr1377 mRNA level relative to unexposed controls: 5% odorant, 5 hours, in vivo, RT-qPCR
Description: as §1, §2, §3, §4, §5

OSNs expressing olfr1350 = experiment: pS6 immunolabeling with OR in situ hybridization after odorant exposure; type: in vivo, mouse; set-up: key: y: neuronal activation (i.e. pS6 signal in a fraction of neuron exceeding 15% relative to controls); no pS6 signals; conditions: 5% acetophenone, 60 minutes
Description: (§6) In order to independently validate the identity of an acetophenone receptor obtained with the RNAseq approach, the potential colocalization following acetophenone exposure of a neuronal activity marker (the phosphorylated ribosomal protein S6 (pS6) (Knight et al., 2012, Cell, 151, 1126-1137) and specific olfactory receptors were evaluated. To this aim, in-situ hybridizations were performed on sections of olfactory tissue with probes targeting receptor mRNAs followed by immunolabeling of pS6. The probes used were directed against the transcripts of most of the ORs determined as responsive including Olfr983 transcripts (encoding a known acetophenone receptor), Olfr171 transcripts (encoding a known ethyl isobutyrate receptor), and Olfr145 transcripts, encoding a newly identified receptor by RNAseq. Before analysis, mice were exposed to either 5% acetophenone, 5% ethyl isobutyrate, or a negative control condition for 60 minutes. […] 66% (Olfr983) and 70% (Olfr145) of the neurons were positive for pS6 after acetophenone exposure, while only 11% of the neurons expressing Olfr171 were positive for pS6 after exposure to this compound.

OSNs expressing olfr490 = experiment: as above; type: in vivo, mouse; set-up: key: y: neuronal activation (i.e. pS6 signal in a fraction of neuron exceeding 15% relative to controls); no pS6 signals; conditions: 5% acetophenone, 60 minutes
Description: as §6

OSNs expressing olfr1135 = experiment: as above; type: in vivo, mouse; set-up: key: y: neuronal activation (i.e. pS6 signal in a fraction of neuron exceeding 15% relative to controls); no pS6 signals; conditions: 5% acetophenone, 60 minutes
Description: as §6

OSNs expressing olfr750 = experiment: as above; type: in vivo, mouse; set-up: key: y: neuronal activation (i.e. pS6 signal in a fraction of neuron exceeding 15% relative to controls); no pS6 signals; conditions: 5% acetophenone, 60 minutes
Description: as §6

OSNs expressing olfr378 = experiment: as above; type: in vivo, mouse; set-up: key: y: neuronal activation (i.e. pS6 signal in a fraction of neuron exceeding 15% relative to controls); no pS6 signals; conditions: 5% acetophenone, 60 minutes
Description: as §6

## CC(=O)c1ccccc1 [acetophenone]
Olfr983; 5% acetophenone exposure
  olfr983 candidate OR (RNAseq) confirmed by qPCR: y
Olfr983
  Olfr983 mRNA level relative to unexposed controls: decrease
Olfr983; listed as Acetophenone
  Olfr983 mRNA level relative to unexposed controls: downregulates
Olfr1377; 5% acetophenone exposure
  olfr1377 candidate OR (RNAseq) confirmed by qPCR: y
Olfr1377
  Olfr1377 mRNA level relative to unexposed controls: decrease
Olfr1377; listed as Acetophenone
  Olfr1377 mRNA level relative to unexposed controls: downregulates
OSNs expressing olfr1350
  olfr1350 ps6 positive: n
OSNs expressing olfr490
  olfr490 ps6 positive: n
OSNs expressing olfr1135
  olfr1135 ps6 positive: n
OSNs expressing olfr750
  olfr750 ps6 positive: n
OSNs expressing olfr378
  olfr378 ps6 positive: n
